Test results from patent US7964567B2, “Monomethylvaline compounds capable of conjugation to ligands” (Seattle Genetics, Inc., priority 2003, dated 2011).
Square brackets hold non-standard residues; d marks the D form. Peptide text beside a SMILES is read from it. * marks the point of attachment. Dolaproine = CO[C@@H]([C@@H]1CCCN1)[C@@H](C)C(=O)O; Dil = CC[C@H](C)[C@H](NC)[C@@H](CC(=O)O)OC; X1 = C[C@@H](N*)[C@@H](O)c1ccccc1; NMeV = CN[C@H](C(=O)O)C(C)C

Key:
[1] = test system: CD30+ cell line Karpas 299; assay: Cytotoxicity determination (resazurin, General Procedure I), Karpas 299; format: cell-based, human; conditions: Karpas 299, 96 hours; for IC50: resazurin
Method: General Procedure I—Cytotoxicity determination. To evaluate the cytotoxicity of Exemplary Conjugates 7-10, cells were seeded at approximately 5-10,000 per well in 150 μl of culture medium then treated with graded doses of Exemplary Conjugates 7-10 in quadruplicates at the initiation of assay. Cytotoxicity assays were carried out for 96 hours after addition of test compounds. Fifty μl of the resazurin dye was added to each well during the last 4 to 6 hours of the incubation to assess viable cells at the end of culture. Dye reduction was determined by fluorescence spectrometry using the excitation and emission wavelengths of 535 nm and 590 nm, respectively. For analysis, the extent of resazurin reduction by the treated cells was compared to that of the untreated control cells.

[2] = test system: SK-BR-3 cells; assay: In vitro cell proliferation assay (CellTiter-Glo), SK-BR-3 cells; format: cell-based, human; conditions: ADC incubated 3-5 days
Method: Cell-based in vitro assays were used to measure viability (proliferation), cytotoxicity, and induction of apoptosis (caspase activation) of the ADC of the invention.
The homogeneous assay procedure involves adding the single reagent (CellTiter-Glo® Reagent) directly to cells cultured in serum-supplemented medium. Cell washing, removal of medium and multiple pipetting steps are not required. The system detects as few as 15 cells/well in a 384-well format in 10 minutes after adding reagent and mixing. The cells may be treated continuously with ADC, or they may be treated and separated from ADC.
The homogeneous “add-mix-measure” format results in cell lysis and generation of a luminescent signal proportional to the amount of ATP present. The amount of ATP is directly proportional to the number of cells present in culture. […] Viable cells are reflected in relative luminescence units (RLU). […] Data can be recorded by luminometer or CCD camera imaging device. The luminescence output is presented as relative light units (RLU), measured over time.
Control wells were prepared containing medium and without cells. • 3. […] The plate was incubated at room temperature for 10 minutes to stabilize the luminescence signal. • 8. Luminescence was recorded and reported in graphs as RLU=relative luminescence units.

[3] = Plasma clearance pharmacokinetics in rats; format: in vivo, Sprague-Dawley rats; conditions: rat, free drug
Method: Pharmacokinetic plasma clearance and stability of ADC were investigated in rats and cynomolgus monkeys. Plasma concentration was measured over time. […] Rats are a non-specific model for ErbB receptor antibodies, since the rat is not known to express HER2 receptor proteins.
AUC inf is the area under the plasma concentration-time curve from time of dosing to infinity and is a measure of the total exposure to the measured entity (drug, ADC). CL is defined as the volume of plasma cleared of the measured entity in unit time and is expressed by normalizing to body weight. T1/2 term is the half-life of the drug in the body measured during its elimination phase.
Animals were dosed by bolus tail vein injection (IV Push). […] Total antibody was measured by ELISA—ECD/GxhuFc-HRP. Antibody drug conjugate was measured by ELISA—MMAE/MMAF/ECD-Bio/SA-HRP.

Question: With cAC10-9: cAC10 Conjugate of Compound 9 as the molecule, how does the “activity compared with cAC10-val-cit-MMAE” value [1] read?
Answer: slightly more active

Question: What about the “IC50” value [1] of the same molecule?
Answer: 0.5 ng/mL

Question: With “H-MC-vc-PAB-MMAE: trastuzumab conjugated via a cysteine to MC-val-cit-PAB-MMAE; preparations of different loading” as the molecule, how does the “IC50 (μg ADC/ml)” value [2] read?
Answer: 0.015 μg ADC/ml

Question: With `CC[C@H](C)[C@@H]([C@@H](CC(=O)N1CCC[C@H]1[C@H](OC)[C@@H](C)C(=O)N[C@H](C)[C@@H](O)c1ccccc1)OC)N(C)C(=O)[C@@H](NC(=O)[C@@H](NC)C(C)C)C(C)C` [MMAE, mono-methyl auristatin E, reference compound] (H-[NMeV]V[Dil][Dolaproine]-X1) as the molecule, how does the AUCinf ([3]; 206 μg/kg) read?
Answer: 3.71 µg·days/mL

Question: And the CL ([3]; 206 μg/kg)?
Answer: 2.61 mL/h/kg

Question: And the “T½ Term.” value ([3]; 206 μg/kg)?
Answer: 17.8 h

Question: Which Cmax ([3]; Sprague-Dawley, plasma, intravenous, 200 ug/kg) does the source give for `CC[C@H](C)[C@@H]([C@@H](CC(=O)N1CCC[C@H]1[C@H](OC)[C@@H](C)C(=O)N[C@@H](Cc1ccccc1)C(=O)O)OC)N(C)C(=O)[C@@H](NC(=O)[C@@H](NC)C(C)C)C(C)C` [Compound 2, N-methylvaline-valine-dolaisoleuine-dolaproine-phenylalanine] (H-[NMeV]V[Dil][Dolaproine]F-OH) here?
Answer: 280 ng/mL

Question: And the half-life ([3]; Sprague-Dawley, plasma, intravenous, 200 ug/kg, 200 μg/kg, read-out: T½ Term. (converted))?
Answer: 5.38 h

Question: And the AUCinf ([3]; 200 μg/kg)?
Answer: 0.99 µg·days/mL

Question: And the CL ([3]; 200 μg/kg)?
Answer: 8.5 mL/h/kg

Question: For “cAC10-val-cit-MMAE: cAC10 (anti-CD30) val-cit MMAE conjugate used as comparator [reference compound]”, which “IC50” value [1] is on record?
Answer: 6 ng/mL
